The conditions of data set [1]: native C60; toluene or benzene; cited from earlier work.
Data set [2] is described as follows: EPR spin-trap (DMPO) hydroxyl radical scavenging. The note with it: for scavenging of OH: EPR. The procedure: (§1) FIGS. 9A and 9B show the EPR spectra of OH (from 100 μM H2 O2 in Fe^2+ by the Fenton reaction) and O2 - (from xanthine+xanthine oxidase) radicals with 100 mM 5,5-dimethyl-1-pyrolline-N-oxide (DMPO) as the spin-trapping agent. Hydroxyl radical (FIG. 9A): OH in the presence of […] alone (top), in the presence of 4 mM O-3a (middle), or in the presence of 4 mM R-3b (bottom). Superoxide radical (right): O2 - in DMPO alone (top), in the presence of 400 mM O-3a (middle), in the presence of 400 mM R-3b (bottom). The arrow designates a spurious signal due to an unknown radical in the cavity. The sample was analyzed in a quartz flat cell (60×10×0.25 mm) in a Bruker 200, X-band EPR spectrometer. Settings were power=1.6 mW, modulation=1 G, field modulation=100 Hz, R.G.=3.2×10^5.

A short description of data set [3]: Spin-label/EPR membrane parameters (5- or 16-doxyl ketostearic acid in brain lipids). Particulars: 16-doxylstearic acid; control 0.8. More on the design: species or system mouse. The procedure: Values are mean±SEM, n=8-12 per condition. I=p<0.05 vs. untreated injury condition, using ANOVA followed by Student-Newman-Keuls test for multiple comparisons. **=p<0.05 R-3b different than O-3a. […] The spin labels were added to lipids extracted from adult mouse brain at a ratio of 1:100. EPR settings were the same as those listed in the legend for FIGS. 9A and 9B.
^a Order parameter, S = a(T_.cent. - T .cent.)/(T - T ),
^b Correlation time, tc = 6.5 × 10^-10 wo [(ho
^c Lipid/aqueous partition factor, f = hL /hA, where hL

A short description of data set [4]: EPR spin-trap (DMPO) superoxide radical scavenging, xanthine + xanthine oxidase. The note with it: xanthine oxidase with xanthine. How it is done: as §1
Data set [5] in a line: EPR free radical scavenging (hydroxyl and superoxide). Particulars: for anti-oxidant potency, isomers compared: EPR analysis. How it is done: as §1, with “The arrow designates a spurious signal due to an unknown radical in the cavity.” left out
Data set [6] relates to cortical neurons. Put plainly: AMPA-induced excitotoxic neuronal death in neuron-astrocyte co-cultures (LDH efflux). The format is cell-based, mouse. How it is done: (§2) Mouse embryos (gestational day 15) are removed from pregnant anesthetized Swiss-Webster mice, and the neocortex is dissected away from other brain structures. After brief incubation in trypsin, the cells are dissociated by trituration, and the cell suspension is then diluted into plating medium and plated onto previously-prepared 24-well Plastek culture plates coated with poly-D-lysine/laminin (for neuronal cultures) or onto an existing bed of astrocytes (for co-cultures). After 1-2days in vitro, a partial exchange with glial conditioned medium is made for "pure" neuronal cultures, and cytosine arabinoside (3 μM) is added immediately after feeding to inhibit glial proliferation. Mixed cultures are fed biweekly with growth medium until 11-12 days in vitro, when they are fed with serum-free MS containing 2 mM L-glutamine. Unless otherwise stated, cells were used at 14-16 days in vitro.

The subject of data set [7] is endothelial cell cultures. Put plainly: Protection in endothelial cell cultures. Type of data set: cell-based.
A further data set has as its system hepatocytes. Put plainly: Protection in hepatocytes. The format is cell-based.
For data set [8], the system named is cortical neurons. Briefly: NMDA-induced excitotoxic neuronal death in neuron-astrocyte co-cultures (LDH efflux). The format is cell-based, mouse. How it is done: as §2
Carboxyfullerene (3-300 (M) was co-applied to neuron-astrocyte co-cultures described above with NMDA for assessment of neuroprotection. Brief exposure to NMDA in the presence of the carboxyfullerene was carried out by triple exchange of the medium with HBBSS, followed by addition of 50 μM-500 μM NMDA plus carboxyfullerene for 10 minutes. The NMDA and carboxyfullerene were removed by quadruple exchange of the medium with MS, and the cultures were placed in the humidified, CO2 (5%), 37° C. incubator for 24 hours, when the extent of injury was assessed.

In data set [9] the test system is cortical neurons. Briefly: Neuroprotection, general statement. The format is cell-based, mouse. How it is done:
as §2

A further data set can be described thus: Solubility. The format is physicochemical. The source says: Solutions of carboxyfullerene were translucent brown.
Data set [10] deals with cortical neurons. Briefly: Serum deprivation apoptotic neuronal death (trypan blue). The format is cell-based, mouse. The procedure:
as §2

The next data set deals with wild-type animals. Particulars: mouse, in vivo, 15 mg/kg/day. An excerpt:
The 8 day increase in survival reached statistical significance (p=0.041), by t-test. There was no difference in survival for FALS mice who received no pumps (123 days, n=4) or those treated with saline-filled pumps (125 days, n=6).

The test system of another data set is FALS mice. Put plainly: Survival in transgenic model of ALS (FALS mice, Gurney G1 strain). Type of data set: in vivo, mouse. Particulars: 15 mg/kg/day, intraperitoneal mini-osmotic pumps. The procedure: The G1 line, with 18 copies and 4 times the SOD activity of wildtype animals, develops motor neuron death by 3-4 months of age, with hindlimb weakness, impaired grooming, and thinning along their flanks. Affected mice were dead before 5 months of age (Gurney et al., 1994).
C60 (C(COOH)2)3 was used to treat FALS mice (Gurney G1 strain) to determine its ability to treat FALS. At 10 weeks of age, Alzet mini-osmotic pumps (28 day, 6 (l/day, 15 mg/kg/day) containing C60 (C(COOH)2)3 (the mixed isomers, which consist of >90% O-3a) or saline were implanted intraperitoneally. The pumps were replaced at 14 weeks of age. Videotaped assessments of open field walking were performed and scored using the Bresnahan scale for spinal cord injury (Basso et al, 1995). As reported by Gurney and colleagues, these animals develop motor symptoms by approximately 90 days of age, and are moribund between 125 and 145 days of age.

For another data set, the system named is NMDA receptor. Put plainly: NMDA-stimulated 45Ca2+ accumulation in cultured neurons. The format is cell-based, mouse. Particulars: up to 300 (M [µM], with NMDA 300 (M, 10 min. The procedure: as §2, with “Mouse neocortical cultures were prepared as neuron-astrocyte co-cultures (approximately 50% astrocytes) (Rose et al., 1992) or as neuronal cultures (<2% astrocytes). Mouse” for “Mouse”
To verify that protection against NMDA-induced neuronal cell injury was not due to a reduction in NMDA-induced calcium influx, ^45 Ca^2+ tracer studies were performed. […]

Entries after “also recorded” stand apart in the source; their conditions may differ.

As for `c12c3c4c5c1c1c6c7c2c2c8c3c3c9c4c4c%10c5c5c1c1c6c6c%11c7c2c2c7c8c3c3c8c9c4c4c9c%10c5c5c1c1c6c6c%11c2c2c7c3c3c8c4c4c9c5c1c1c6c2c3c41` [C60, Buckminsterfullerene], the “solubility (solvents)” value in data set [1] was “soluble only in a limited number of solvents, such as toluene or benzene”.

For the compound `O=C(O)C1(C(=O)O)C23c4c5c6c7c8c4-c4c2c2c9c%10c%11c%12c(c-5c5c%13c%14c%15c%16c%17c(c-7c7c%18c%19c%20c%21c(c4C%204C(C(=O)O)(C(=O)O)C874)c2c2c9c4c%11c7c(c%13%12)c%14c8c%16c9c(c%18%17)c%19c%11c%21c2c2c4c7c8c9c%112)C%152C(C(=O)O)(C(=O)O)C652)C%1013` (stereo not shown) [O-3a], the “OH signal (DMPO-OH spin adduct)” value in data set [2] (150 (M [µM], H2O2, 15 minute period) is reported as “elimination of this OH signal”. Moreover, in data set [2], the “scavenging of OH” value was “extremely potent scavengers of OH”. The Lipid/aqueous partition factors in data set [3] turned out to be 1.0 ± 0.2. Also, in [4], the “superoxide radical signal (DMPO-OOH)” value was “eliminated the superoxide radical signal”. For the same compound, the “anti-oxidant potency, isomers compared” value in [5] was “equipotent anti-oxidants”. In addition, in the data set with cortical neurons [6] (FIG. 10B, n=8-12 per condition), the “protection against AMPA-induced neuronal death vs R-3b” value is recorded as “substantially better protection”. For the same compound, the “protection from injury in endothelial cell cultures vs R-3b” value in [7] is on record as “enhanced protection over R-3b”. Further, in the data set with hepatocytes, the “protection from injury in hepatocytes vs R-3b” value was “enhanced protection over R-3b”. The “protection from NMDA injury vs R-3b” value with cortical neurons [8] (FIG. 10A, n=8-12 per condition) is “slightly better protection”.

On to `O=C(O)C1(C(=O)O)C23c4c5c6c7c8c9c%10c%11c%12c%13c%14c%15c(c6c6c4c4c%16c%17c%18c(c%19c%20c2c5c8c2c%20c5c%19c8c%19c%20c(c%21c%12c%12c%22c%23c(c(c%188)C%198C(C(=O)O)(C(=O)O)C%21%228)c%17c8c4c6c%15c(c%12%14)c%238)c%11c(c92)c%205)C%1613)C71C(C(=O)O)(C(=O)O)C%13%101` (stereo not shown) [R-3b], for which the “scavenging of OH” value in data set [2] is listed as “extremely potent scavengers of OH”. The neuroprotection entry with cortical neurons [9] is “effective neuroprotectant”. Moreover, the Lipid/aqueous partition factors in data set [3] amounted to 0.6. The “superoxide radical signal (DMPO-OOH)” value in [4] is “eliminated the superoxide radical signal”. Moreover, the “anti-oxidant potency, isomers compared” value in data set [5] is “equipotent anti-oxidants”.

Regarding `O=C(O)C1(C(=O)O)C23c4c5c6c7c8c9c(c%10c%11c2c2c4c4c%12c5c5c6c6c8c8c%13c9c9c%10c%10c%11c%11c2c2c4c4c%12c%12c5c5c6c8c6c8c%13c9c9c%10c%10c%11c2c2c4c4c%12c5c6c5c8c9c%10c2c45)C713` [dicarboxy fullerene], the “solubility in aqueous solution vs hexacarboxy derivative” value in “Solubility” (aqueous solution) is “less soluble”. The “neuroprotective efficacy vs hexacarboxy derivative” value with cortical neurons [9] is recorded as “less effective neuroprotectants”.

Take C60 (C(COOH)2)3: the “reduction in neuronal death, serum deprivation” value in the data set on cortical neurons [10] (10 (M [µM], 48 hours, trypan blue, 10 µM) was found to be 50%. Also, the “apoptotic neuronal death due to serum deprivation” value with cortical neurons [10] (co-application) is reported as “attenuated”. Also, in the data set “Solubility” (water), the solubility in water entry was “at least 50 mM”. For the same compound, the “body weight vs untreated littermates” value with wild-type animals was “weights were similar”. Also, in the data set on FALS mice, the onset of symptoms result is “delay in onset of symptoms”. Moreover, the delay in death in the data set with FALS mice (p=0.041 by t-test) amounted to 8 ± 2.2 days. Further, in [5] (OH over O2-), the “scavenging ability towards OH vs potency for O2- radicals” value was 10 fold. Further, the “reduction of neuronal cell death from AMPA” value in the data set on cortical neurons [6] (100 (M [µM], MK-801 10 (M included), 24 h, data from 4 experiments pooled, 100 µM) is reported as greater than 80%. The “protection against AMPA excitotoxic injury” value in the data set on cortical neurons [6] (cortical neurons) is reported as “protected cortical neurons against excitotoxic injury; also recorded: robust neuroprotection”. Further, in the data set on NMDA receptor, the “45Ca2+ accumulation” value is given as “not affected”. Further, the “protection from NMDA, some experiments” value in the data set on cortical neurons [8] (300 (M [µM]) is “nearly complete protection”. In the data set with cortical neurons [8] (300 (M [µM], 24 h after 10 min NMDA, 300 µM), the “reduction of neuronal death from NMDA, all experiments” value is on record as “at least 60%”. Also, the “protection against NMDA excitotoxic injury” value with cortical neurons [8] (cortical neurons) was “protected cortical neurons against excitotoxic injury; also recorded: robust neuroprotection”. Also, in the data set on cortical neurons [8] (pooled data from three experiments, FIG. 5), the “reduction in neuronal cell death (NMDA), pooled data” value was found to be 75%.

(Values after patent US6265443A, “Method for treating neuronal injury with carboxyfullerene” (priority 1997, dated 2001).)
